Values joined by “and” are separate entries in the source; they are usually repeats but may differ in a detail not shown here. Identical values can stand only once.
Key:
[1] = LNP size and polydispersity, Zetasizer Ultra; assay type: physicochemical
Description: (§1) For each LNP composition, the lipid mix and mRNA solution were mixed at a 1:3 ratio by volume, respectively, on a NanoAssemblr Ignite (Precision Nanosystems) at a total flow rate of 9 mL/min. The resulting compositions were then loaded into Slide-A-Lyzer G2 dialysis cassettes (10 k MWCO) and dialyzed in 200 times sample volume of 1×PBS for 2 hours at room temperature with gentle stirring. The PBS was refreshed, and the compositions were further dialyzed for at least 14 hours at 4° C. with gentle stirring. The dialyzed compositions were then collected and concentrated by centrifugation at 3000×g using Amicon Ultra centrifugation filters (100 k MWCO). The concentrated particles were characterized for size, polydispersity, and particle concentration using Zetasizer Ultra (Malvern Panalytical) and for mRNA encapsulation efficiency using Quant-iT RiboGreen RNA Assay Kit (ThermoFisher Scientific).

[2] = mRNA encapsulation efficiency, Quant-iT RiboGreen RNA Assay; assay type: physicochemical
Description: as §1

[3] = test system: Balb/c mice; experiment: In-vivo bioluminescent imaging of LNP compositions (Example 6); details: mRNA dose 5 μg FLUC (CRE/FLUC 1:1 LNP); for Bioluminescence (IV) Liver / Bioluminescence (IV) Lung / Bioluminescence (IV) Spleen / Bioluminescence (IV) Whole Body: 4-6 hours post-dose; for Spleen: Liver Ratio: intravenous
[4] = test system: Balb/c mice; experiment: In-vivo bioluminescent imaging of LNP compositions (Example 3); details: for Bioluminescence, Liver / Bioluminescence, Lung / Bioluminescence, Pancreas / Bioluminescence, Spleen / Bioluminescence, Whole body: LNP with 5 μg Fluc+5 μg EPO mRNA intravenously, 4-6 hours post-dose, two values per compound; for Bioluminescence, Whole body: FIG. 1: average radiance (p/s/cm2/sr); for Organ selectivity of delivery: bioluminescent imaging in mice, Example 3
Source text: C12-200 is commercially available ionizable lipid and has a chemical name of 1,1′-((2-(4-(2-((2-(bis(2-hydroxydodecyl)amino)ethyl)(2-hydroxydodecyl) amino)ethyl)piperazin-1-yl)ethyl)azanediyl)bis(dodecan-2-ol). A composition composed of ionizable lipid:structural lipid:sterol:EG-lipid (C12-200:DOPE:cholesterol:14:0 PEG2000 PE) at a molar ratio of 35:16:46.5:2.5, respectively. Lipids were solubilized in ethanol. These lipids were mixed at the above-indicated molar ratios and diluted in ethanol (organic phase) to 5.5 mM total lipid concentration. The mRNA solution (aqueous phase) was prepared with RNAse-free water and 100 mM citrate buffer pH 3 for a final concentration of 50 mM citrate buffer. The ionizable lipid to mRNA N:P ratio maintained at 15:1.
All other compositions (i.e., compositions of MC3 (a commercially available ionizable lipid having a chemical name of (6Z,9Z,28Z,31Z)-heptatriacont-6,9,28,31-tetraene-19-yl 4-(dimethylamino)butanoate, and compositions of novel ionizable lipids 7669, 7671, 7668, […], 7650) were composed of ionizable lipid:structural lipid:sterol:PEG-lipid (SDA lipid #:DSPC:cholesterol:14:0 PEG2000 PE) at a molar ratio of 50:38.5:10:1.5, respectively. Lipids were solubilized in ethanol. Compositions were then handled as above, except the formulations were maintained at ionizable lipid to mRNA N:P ratio of 6:1. The lipid mix and mRNA solution were mixed at a 1:3 ratio by volume, respectively, on a NanoAssemblr Ignite (Precision Nanosystems) at a total flow rate of 9 mL/min. Resulting compositions were then loaded into Slide-A-Lyzer G2 dialysis cassettes (10 k MWCO) and dialyzed in 200 times sample volume of 1×PBS for 4 hrs at room temp with gentle stirring. The PBS was refreshed, and the compositions were further dialyzed for at least 14 hrs at 4° C. with gentle stirring. The dialyzed compositions were then collected and concentrated by centrifugation at 2000×g using Amicon Ultra centrifugation filters (100 k MWCO). Concentrated particles were characterized for size, polydispersity, and particle concentration using Zetasizer Ultra (Malvern Panalytical) and for mRNA encapsulation efficiency using Quant-iT RiboGreen RNA Assay Kit (ThermoFisher Scientific).
8-9 week old female Balb/c mice were utilized for bioluminescence-based ionizable lipid screening efforts. Mice were obtained from Jackson Laboratories (JAX Stock: 000651) and allowed to acclimate for one week prior to manipulations. Animals were placed under a heat lamp for a few minutes before introducing them to a restraining chamber. The tail was wiped with alcohol pads (Fisher Scientific) and 100 μL of a lipid nanoparticle composition described above containing 10 μg total mRNA (5 μg Fluc+5 μg EPO) was injected intravenously using a 29G insulin syringe (Covidien). Any resulting bleeding was stemmed using a sterile gauze pad (Fisher Scientific) and animals were placed back into their home cage. 4-6 hours post-dose, animals were injected with 200 μL of 15 mg/mL D-Luciferin (GoldBio) and placed in an isoflurane induction chamber set to deliver 2.5% isoflurane delivered at an oxygen flow rate of 1-2 liters per min. After 5 minutes of isoflurane exposure, mice were placed in set nose cones inside the IVIS Lumina LT imager (PerkinElmer). LivingImage software was utilized for imaging. Whole body bio-luminescence was captured at auto-exposure after which animals were removed from the IVIS and placed into a CO2 chamber for euthanasia. Cardiac puncture was performed on each animal after placing it in dorsal recumbency, and blood collection was performed using a 25G insulin syringe (BD). Blood was collected in Lithium-Heparin coated tubes (Fisher Scientific) and immediately placed on ice. Once all blood samples were collected, tubes were spun at 2000G for 10 minutes using a tabletop centrifuge and plasma was aliquoted into individual Eppendorf tubes (Fisher Scientific) and stored at −80 C for subsequent EPO quantification. […]

## CCCCCC(CCCCC)CCCOC(=O)CCCCCCCN(CCCCCCCC(=O)OCCCC(CCCCC)CCCCC)CCCCN(C)C [Compound 2129, bis(4-pentylnonyl) 8,8′-((4-(dimethylamino)butyl)azanediyl) dioctanoate]
[1]; LNP with CRE/FLUC 1:1 mRNA
  PDI: 0.07
  Size (nm): 81.1 nm
[2]; LNP with CRE/FLUC 1:1 mRNA
  % EE: 97.0%
[3]
  Bioluminescence (IV) Liver: 1.4E + 05
  Bioluminescence (IV) Lung: 2.1E + 03
  Bioluminescence (IV) Spleen: 9.2E + 03
  Bioluminescence (IV) Whole Body: 1.9E + 04
  Spleen: Liver Ratio: 0.066

## CCCCCCC(CCCCCC)CCCOC(=O)CCCCCN(CCCCCC(=O)OCCCC(CCCCCC)CCCCCC)CCCCN(C)C [Compound 2131, bis(4-hexyldecyl) 6,6′-((4-(dimethylamino)butyl)azanediyl) dihexanoate]
[1]; LNP with CRE/FLUC 1:1 mRNA
  PDI: 0.13
  Size (nm): 71.2 nm
[2]; LNP with CRE/FLUC 1:1 mRNA
  % EE: 97.1%
[3]
  Bioluminescence (IV) Liver: 1.3E + 05
  Bioluminescence (IV) Lung: 2.4E + 03
  Bioluminescence (IV) Spleen: 9.5E + 03
  Bioluminescence (IV) Whole Body: 1.2E + 04
  Spleen: Liver Ratio: 0.076

## CCCCCC(CCCCC)CCCOC(=O)CCCCCCCN(CCCCCCCC(=O)OCCCC(CCCCC)CCCCC)C(=O)CCCN(C)C [Compound 2132, bis(4-pentylnonyl) 8,8′-((4-(dimethylamino)butanoyl)azanediyl) dioctanoate]
[1]; LNP with CRE/FLUC 1:1 mRNA
  PDI: 0.13
  Size (nm): 76.3 nm
[1]; LNP with EGFP mRNA
  PDI: 0.20
  Size (nm): 90.4 nm
[2]; LNP with CRE/FLUC 1:1 mRNA
  % EE: 97.7%
[2]; LNP with EGFP mRNA
  % EE: 97.2%
[3]
  Bioluminescence (IV) Liver: 1.4E + 05
  Bioluminescence (IV) Lung: 1.7E + 03
  Bioluminescence (IV) Spleen: 2.5E + 04
  Bioluminescence (IV) Whole Body: 7.0E + 03
  Spleen: Liver Ratio: 0.212

## CCCCCC(CCCCC)CCCOC(=O)CCCCCCCN(CCO)CCCCCCCC(=O)OCCCC(CCCCC)CCCCC [Compound 2135, bis(4-pentylnonyl) 8,8′-((2-hydroxyethyl)azanediyl)dioctanoate]
[1]; LNP with EGFP mRNA
  PDI: 0.04
  Size (nm): 81.8 nm
[2]; LNP with EGFP mRNA
  % EE: 96.2%

## CCCCCCC(CCCCCC)CCCOC(=O)CCCCCCCN(CCO)CCCCCCCC(=O)OCCCC(CCCCCC)CCCCCC [Compound 2136, bis(4-hexyldecyl) 8,8′-((2-hydroxyethyl)azanediyl)dioctanoate]
[1]; LNP with EGFP mRNA
  PDI: 0.04
  Size (nm): 77.5 nm
[2]; LNP with EGFP mRNA
  % EE: 95.5%

## CCCCCC(CCCCC)CCCN(C)C(=O)CCCCCCCN(CCCCCCCC(=O)N(C)CCCC(CCCCC)CCCCC)C(=O)CCN1CCCC1 [Compound 2242, N-methyl-8-(N-(8-(methyl(4-pentylnonyl)amino)-8-oxooctyl)-3-(pyrrolidin-1-yl)propanamido)-N-(4-pentylnonyl)octanamide]
[1]; LNP with FLUC/EPO 1:1 mRNA
  PDI: 0.079
  Size (nm): 154.2 nm
[2]; LNP with FLUC/EPO 1:1 mRNA
  % EE: 89.5%

## CCCCCCC(CCCCCC)CCCOC(=O)CCCCCCCN(CCCCCCCC(=O)OCCCC(CCCCCC)CCCCCC)CCCCN(C)C [Compound 7650, 4-hexyldecyl 8-[4-(dimethylamino)butyl-[8-(4-hexyldecoxy)-8-oxo-octyl]amino]octanoate]
[4]
  Bioluminescence, Liver: 56300 and 83100
  Bioluminescence, Lung: 150000 and 138000
  Bioluminescence, Pancreas: 127000 and 87200
  Bioluminescence, Spleen: 82400 and 108000
  Bioluminescence, Whole body: 12100 and 10900
  Organ selectivity of delivery: selectively targeted the pancreas and lung over the whole body, liver, or spleen

## CCCCCCC(CCCCCC)CCCOC(=O)CCCCCCCN(CCCCCCCC(=O)OCCCC(CCCCCC)CCCCCC)C(=O)CCCN(C)C [Compound 7668, 4-hexyldecyl 8-[4-(dimethylamino)butanoyl-[8-(4-hexyldecoxy)-8-oxo-octyl]amino]octanoate]
[4]
  Bioluminescence, Spleen: 56400 and 60500
  Bioluminescence, Whole body: 48500 and 26900
  Organ selectivity of delivery: selectively targeted the pancreas and lung over the whole body, liver, or spleen

## CCCCCCC(CCCCCC)CCCOC(=O)CCCCCCCN(CCCCCCCC(=O)OCCCC(CCCCCC)CCCCCC)CCOCCOCCN(C)C [Compound 7669, 4-hexyldecyl 8-[2-[2-[2-(dimethylamino)ethoxy]ethoxy]ethyl-[8-(4-hexyldecoxy)-8-oxo-octyl]amino]octanoate]
[4]
  Bioluminescence, Liver: 92400 and 129000
  Bioluminescence, Lung: 73000 and 70100
  Bioluminescence, Pancreas: 106000 and 87800
  Bioluminescence, Spleen: 112000 and 91700
  Bioluminescence, Whole body: 5120 and 2920
  Organ selectivity of delivery: selectively targeted the pancreas and lung over the whole body, liver, or spleen

## CCCCCCC(CCCCCC)CCCOC(=O)CCCCCCCN(CCCCCCCC(=O)OCCCC(CCCCCC)CCCCCC)C(=O)CCN1CCCC1 [Compound 7671, 4-hexyldecyl 8-[[8-(4-hexyldecoxy)-8-oxo-octyl]-(3-pyrrolidin-1-ylpropanoyl)amino]octanoate]
[4]
  Bioluminescence, Liver: 296000 and 184000
  Bioluminescence, Lung: 215000 and 180000
  Bioluminescence, Pancreas: 141000 and 185000
  Bioluminescence, Spleen: 422000 and 574000
  Bioluminescence, Whole body: 780000 and 772000
  Organ selectivity of delivery: selectively targeted the pancreas and lung over the whole body, liver, or spleen

## CCCCCCC(CCCCCC)CCCOC(=O)CCCCCCCN(CCCCCCCC(=O)OCCCC(CCCCCC)CCCCCC)CCC(O)CN(C)C (stereo not shown) [Compound 7676, 4-hexyldecyl 8-[[4-(dimethylamino)-3-hydroxy-butyl]-[8-(4-hexyldecoxy)-8-oxo-octyl]amino]octanoate]
[4]
  Bioluminescence, Liver: 183000 and 161000
  Bioluminescence, Lung: 262000 and 170000
  Bioluminescence, Pancreas: 177000 and 220000
  Bioluminescence, Spleen: 255000 and 259000
  Bioluminescence, Whole body: 50900 and 30400
  Organ selectivity of delivery: selectively targeted the pancreas and lung over the whole body, liver, or spleen

## CCCCCCCCCCC(O)CN(CCN1CCN(CCN(CC(O)CCCCCCCCCC)CC(O)CCCCCCCCCC)CC1)CCN(CC(O)CCCCCCCCCC)CC(O)CCCCCCCCCC (stereo not shown) [Compound C12-200, 1,1′-((2-(4-(2-((2-(bis(2-hydroxydodecyl)amino)ethyl)(2-hydroxydodecyl)amino)ethyl)piperazin-1-yl)ethyl)azanediyl)bis(dodecan-2-ol), reference compound]
[4]
  Bioluminescence, Liver: 92300000 and 69700000
  Bioluminescence, Pancreas: 236000 and 216000
  Bioluminescence, Spleen: 1280000 and 1390000

## CCCCC/C=C\C/C=C\CCCCCCCCC(CCCCCCCC/C=C\C/C=C\CCCCC)OC(=O)CCCN(C)C [MC3, (6Z,9Z,28Z,31Z)-heptatriacont-6,9,28,31-tetraene-19-yl 4-(dimethylamino)butanoate, reference compound]
[4]
  Bioluminescence, Liver: 22000000 and 20300000
  Bioluminescence, Lung: 300000 and 258000
  Bioluminescence, Pancreas: 192000 and 232000
  Bioluminescence, Spleen: 1660000 and 2060000
